The source of these data is ChEMBL document CHEMBL1142448, “Design and synthesis of 6-phenylnicotinamide derivatives as antagonists of TRPV1” (Bioorg Med Chem Lett, 2008).

A value given as a limit tells only on which side of the number the result lay.

For data set [1], the target named is T1, Transient receptor potential cation channel subfamily V member 1 (Homo sapiens, UniProt Q8NER1). Description: Antagonist activity at human TRPV1 expressed in human 1321N1 cells assessed as inhibition of capsaicin-induced calcium influx by FLIPR assay. The data set is classed as functional, cell-based.
T1 sequence (Q8NER1 whole entry): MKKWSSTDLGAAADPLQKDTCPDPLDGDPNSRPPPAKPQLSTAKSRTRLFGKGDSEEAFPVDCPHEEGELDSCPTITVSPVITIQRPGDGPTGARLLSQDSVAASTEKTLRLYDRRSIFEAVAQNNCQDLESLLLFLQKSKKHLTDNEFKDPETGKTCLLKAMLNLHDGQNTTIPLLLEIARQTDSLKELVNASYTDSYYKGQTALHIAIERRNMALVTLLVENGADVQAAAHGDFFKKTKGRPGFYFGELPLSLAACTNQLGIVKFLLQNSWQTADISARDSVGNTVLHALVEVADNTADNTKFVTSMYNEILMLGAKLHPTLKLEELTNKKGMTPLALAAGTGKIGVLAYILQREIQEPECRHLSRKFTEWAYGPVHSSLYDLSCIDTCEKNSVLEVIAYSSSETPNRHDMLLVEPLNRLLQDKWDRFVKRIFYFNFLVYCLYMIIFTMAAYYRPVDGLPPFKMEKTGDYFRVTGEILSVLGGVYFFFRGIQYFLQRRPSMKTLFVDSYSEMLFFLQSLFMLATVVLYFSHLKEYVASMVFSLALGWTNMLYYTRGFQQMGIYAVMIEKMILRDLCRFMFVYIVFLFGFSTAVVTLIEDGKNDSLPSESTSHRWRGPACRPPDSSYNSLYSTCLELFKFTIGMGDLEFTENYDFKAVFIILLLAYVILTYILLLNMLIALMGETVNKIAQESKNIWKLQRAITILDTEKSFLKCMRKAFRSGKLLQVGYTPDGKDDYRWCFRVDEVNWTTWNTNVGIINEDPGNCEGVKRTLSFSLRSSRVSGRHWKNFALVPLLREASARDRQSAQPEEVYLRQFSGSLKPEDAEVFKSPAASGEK
Data set [2] relates to Liver microsomes. The data set is described as follows: Intrinsic clearance in human liver microsomes. The data set is classed as ADME, Microsome. In general terms: Microsomes from liver hold many membrane-bound enzymes, among them those of drug oxidation.
Data set [3] can be described thus: Intrinsic clearance in guinea pig liver microsomes. The class given is ADME, Cavia porcellus, Microsome.
Data set [4] deals with Cavia porcellus. Description: Antihyperalgesic activity in guinea pig assessed as reversal of FCA-induced inflammatory pain at 5 mg/kg, ip. The class given is functional. To be noted: route intraperitoneal.
Data set [5] deals with Cytochrome P450 3A4 (Homo sapiens, UniProt P08684). The data set is described as follows: Inhibition of CYP3A4. The class given is ADME.
Chain of Cytochrome P450 3A4 (P08684 whole entry): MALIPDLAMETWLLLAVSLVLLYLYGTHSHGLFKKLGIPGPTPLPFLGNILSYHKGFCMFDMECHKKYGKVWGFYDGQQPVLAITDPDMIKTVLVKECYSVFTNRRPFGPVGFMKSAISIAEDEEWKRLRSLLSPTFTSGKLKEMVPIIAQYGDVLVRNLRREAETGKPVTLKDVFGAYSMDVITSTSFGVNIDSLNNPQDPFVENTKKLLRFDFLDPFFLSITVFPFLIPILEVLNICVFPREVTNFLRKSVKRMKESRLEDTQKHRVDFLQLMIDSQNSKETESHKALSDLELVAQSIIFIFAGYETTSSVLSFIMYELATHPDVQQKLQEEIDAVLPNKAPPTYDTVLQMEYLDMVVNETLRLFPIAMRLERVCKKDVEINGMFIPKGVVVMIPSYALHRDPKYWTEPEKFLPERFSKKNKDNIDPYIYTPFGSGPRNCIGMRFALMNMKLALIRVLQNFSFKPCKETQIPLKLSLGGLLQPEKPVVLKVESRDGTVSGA
For data set [6], the species on record is Cavia porcellus. The data set is described as follows: Antihyperalgesic activity against FCA-induced inflammatory pain in guinea pig assessed as paw withdrawal after 1 hr. The data set is classed as functional.
Data set [7] deals with T1, Transient receptor potential cation channel subfamily V member 1. The data set is described as follows: Inhibition of human TRPV1 expressed in HEK293 cells assessed as reversible inhibition of heat-activated current at 1 uM by whole cell patch clamp assay relative to control. The data set is classed as cell-based. A general note: In patch-clamp work, channel activity is measured electrically.

The nature of data set [8]: Oral bioavailability in guinea pig. The data set is classed as ADME, organism-based, Cavia porcellus. To be noted: in vivo.
Data set [9] deals with T1, Transient receptor potential cation channel subfamily V member 1. The data set is described as follows: Antagonist activity at human TRPV1 expressed in HEK293 cells assessed as inhibition of capsaicin-induced calcium influx at 1 uM by whole cell patch clamp assay. The class given is functional, cell-based.
For data set [10] the target is unchanged. Description: Antagonist activity at human TRPV1 expressed in HEK293 cells assessed as inhibition of capsaicin-induced calcium influx by whole cell patch clamp assay. The class given is functional, cell-based.
The target is the same in data set [11]. The data set is described as follows: Antagonist activity at human TRPV1 expressed in HEK293 cells assessed as inhibition of pH 5.3 acid-induced calcium influx at 100 nM by whole cell patch clamp assay. The class given is functional, cell-based.
Data set [12] shares this target. Description: Antagonist activity at human TRPV1 expressed in HEK293 cells assessed as inhibition of pH 5.3 acid-induced calcium influx by whole cell patch clamp assay. The data set is classed as functional, cell-based.
Data set [13] shares this target. The data set is described as follows: Antagonist activity at human TRPV1 expressed in HEK293 cells assessed as inhibition of pH 5.3 acid-induced calcium influx by FLIPR assay. The data set is classed as functional, cell-based.
Data set [14] has as its target Transient receptor potential cation channel subfamily V member 1 (Cavia porcellus, UniProt Q6R5A3). The data set is described as follows: Antagonist activity at guinea pig TRPV1 expressed in HEK293 cells assessed as inhibition of pH 5.3 acid-induced calcium influx by FLIPR assay. The class given is functional, cell-based.
In data set [15] the target is Transient receptor potential cation channel subfamily V member 1 (Rattus norvegicus, UniProt O35433). Description: Antagonist activity at rat TRPV1 expressed in HEK293 cells assessed as inhibition of pH 5.3 acid-induced calcium influx by FLIPR assay. The data set is classed as functional, cell-based.
Chain of Transient receptor potential cation channel subfamily V member 1 (Rattus norvegicus, UniProt O35433) (O35433 whole entry): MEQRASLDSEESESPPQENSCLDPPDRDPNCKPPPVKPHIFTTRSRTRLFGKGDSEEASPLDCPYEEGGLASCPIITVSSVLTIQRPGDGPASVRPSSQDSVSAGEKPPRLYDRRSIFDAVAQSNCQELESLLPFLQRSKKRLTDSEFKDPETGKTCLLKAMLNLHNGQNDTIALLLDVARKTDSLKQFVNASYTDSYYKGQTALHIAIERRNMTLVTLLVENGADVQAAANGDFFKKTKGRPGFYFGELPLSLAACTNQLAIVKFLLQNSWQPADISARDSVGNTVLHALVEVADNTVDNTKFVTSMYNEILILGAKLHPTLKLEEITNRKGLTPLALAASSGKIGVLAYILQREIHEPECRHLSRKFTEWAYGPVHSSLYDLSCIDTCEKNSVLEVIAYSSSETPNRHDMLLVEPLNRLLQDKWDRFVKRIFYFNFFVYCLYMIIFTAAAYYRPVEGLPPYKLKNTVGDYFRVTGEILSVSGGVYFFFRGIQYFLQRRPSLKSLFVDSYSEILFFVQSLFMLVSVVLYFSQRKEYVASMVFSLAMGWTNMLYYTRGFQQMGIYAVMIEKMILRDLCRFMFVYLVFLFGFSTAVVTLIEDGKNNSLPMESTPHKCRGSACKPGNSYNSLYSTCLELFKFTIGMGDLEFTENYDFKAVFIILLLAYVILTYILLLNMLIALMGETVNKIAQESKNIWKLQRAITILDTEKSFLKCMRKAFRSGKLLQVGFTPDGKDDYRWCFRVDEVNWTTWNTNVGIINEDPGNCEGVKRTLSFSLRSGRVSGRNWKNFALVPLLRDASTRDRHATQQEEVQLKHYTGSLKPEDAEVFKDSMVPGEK
Data set [16] addresses T1, Transient receptor potential cation channel subfamily V member 1. Conditions: HEK293.
Description: Antagonist activity at human TRPV1 expressed in HEK293 cells assessed as inhibition of capsaicin-induced calcium influx by FLIPR assay
For data set [17], the target named is Transient receptor potential cation channel subfamily V member 1 (Cavia porcellus) (UniProt Q6R5A3). To be noted: HEK293.
Chain of Transient receptor potential cation channel subfamily V member 1 (Cavia porcellus) (Q6R5A3 whole entry): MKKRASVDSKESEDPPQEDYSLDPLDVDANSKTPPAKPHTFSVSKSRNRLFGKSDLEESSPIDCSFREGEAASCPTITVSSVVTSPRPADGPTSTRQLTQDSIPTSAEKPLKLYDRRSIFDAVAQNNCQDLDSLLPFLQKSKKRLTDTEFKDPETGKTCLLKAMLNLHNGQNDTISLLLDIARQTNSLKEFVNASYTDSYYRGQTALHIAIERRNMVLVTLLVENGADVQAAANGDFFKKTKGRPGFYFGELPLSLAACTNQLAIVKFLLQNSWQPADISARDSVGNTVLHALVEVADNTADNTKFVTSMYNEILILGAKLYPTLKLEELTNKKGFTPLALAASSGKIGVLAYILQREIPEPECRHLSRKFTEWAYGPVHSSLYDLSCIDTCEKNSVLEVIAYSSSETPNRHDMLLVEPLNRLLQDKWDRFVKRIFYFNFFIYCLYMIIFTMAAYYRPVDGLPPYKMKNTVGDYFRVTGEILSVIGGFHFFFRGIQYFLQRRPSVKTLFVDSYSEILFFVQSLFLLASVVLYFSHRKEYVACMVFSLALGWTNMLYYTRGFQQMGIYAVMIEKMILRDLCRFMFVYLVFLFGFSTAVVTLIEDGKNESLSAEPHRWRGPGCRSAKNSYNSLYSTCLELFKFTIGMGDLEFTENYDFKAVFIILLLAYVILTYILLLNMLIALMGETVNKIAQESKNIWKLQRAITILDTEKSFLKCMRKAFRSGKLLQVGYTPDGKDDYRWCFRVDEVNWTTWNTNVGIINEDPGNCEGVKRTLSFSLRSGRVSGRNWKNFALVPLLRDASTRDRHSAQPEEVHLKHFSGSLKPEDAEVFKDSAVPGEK
Description: Antagonist activity at guinea pig TRPV1 expressed in HEK293 cells assessed as inhibition of capsaicin-induced calcium influx by FLIPR assay
Data set [18] concerns the target Transient receptor potential cation channel subfamily V member 1 (Rattus norvegicus) (UniProt O35433). Conditions: HEK293.
Description: Antagonist activity at rat TRPV1 expressed in HEK293 cells assessed as inhibition of capsaicin-induced calcium influx by FLIPR assay
The subject of data set [19] is Cavia porcellus. Description: Antihyperalgesic activity in guinea pig assessed as reversal of FCA-induced inflammatory pain at 30 mg/kg, sc. The data set is classed as functional. Conditions: route subcutaneous.
A short description of data set [20]: Blood clearance in rat at 1 mg/kg, iv. The data set is classed as ADME, organism-based. Conditions: whole blood. Details: dose 1 mg/kg, route intravenous.
Data set [21] can be described thus: Half life in rat at 1 mg/kg, iv. The class given is ADME, organism-based. Details: dose 1 mg/kg, route intravenous. Conditions: in vivo.

Chain of Transient receptor potential cation channel subfamily V member 1 (Cavia porcellus, UniProt Q6R5A3) (Q6R5A3 whole entry): as above
Chain of Transient receptor potential cation channel subfamily V member 1 (Rattus norvegicus) (O35433 whole entry): as the sequence (O35433 whole entry) above

For orientation: pKb means the negative decadic logarithm of the Kb, by convention in mol/L. `O=C(Nc1ccc2cccnc2c1)c1ccc(-c2ccc(C(F)(F)F)cc2)nc1`: the pKb in data set [1] was 7.3.
On the same count and under the same terms, the result for `O=C(Nc1ccc2cccnc2c1)c1ccc(-c2ccc(Cl)cc2)nc1` reads 7.8.
On the same count and under the same terms, the result for `Cc1nc(-c2ccc(F)cc2)ccc1C(=O)Nc1ccc2sc(N(C)C)nc2c1` reads below 5.8; that for `Cc1nc(-c2ccc(F)cc2)ccc1C(=O)Nc1ccc2ncn(C)c2c1`, 6.7.
As for `Cc1nc(-c2ccc(F)cc2)ccc1C(=O)Nc1ccc2sc(CN(C)C)nc2c1`, the pKb in data set [1] was below 6.7.
For the compound `O=C(Nc1ccc2cccnc2c1)c1ccc(-c2ccc(F)cc2)nc1`, the values for the CL in data set [2] and in data set [3] were 1.7 mL/min/g and 42 mL/min/g, respectively. In data set [1], the pKb was 8.2.
For the compound `Cc1nc(-c2ccccc2)ccc1C(=O)Nc1ccc2cccnc2c1`, the pKb in [1] is 9.
Turning to `Cc1nc(-c2ccc(F)cc2)ccc1C(=O)Nc1ccc2c(C)n[nH]c2c1`, the pKb in data set [1] turned out to be 6.9.
On the same count and under the same terms, the result for `N#Cc1ccc(-c2ccc(C(=O)Nc3ccc4cccnc4c3)cn2)cc1` reads below 6.6.
On the same count and under the same terms, the result for `Cc1nc2ccc(NC(=O)c3ccc(-c4ccc(F)cc4)nc3C)cc2o1` reads below 6.7.
In general, IC50 refers to the concentration needed to halve the response being measured. For `Cc1nc(-c2ccc(F)cc2)ccc1C(=O)Nc1ccc2cccnc2c1`, the Activity in data set [4] came out at 42%. Also, the IC50 in data set [5] is below 10000 nM. Further, in data set [1], the pKb turned out to be 8.5.
With `Cc1cc(-c2ccccc2)ncc1C(=O)Nc1ccc2cccnc2c1`, the pKb in data set [1] stood at 6.7.
On the same count and under the same terms, the result for `Cc1nc(-c2ccc(F)cc2)ccc1C(=O)Nc1ccc2ncsc2c1` reads 6.7.
On to `Cc1nc2ccc(NC(=O)c3ccc(-c4ccc(F)cc4)nc3C)cc2[nH]1`, for which the pKb in [1] amounted to 6.
As to `O=C(Nc1ccc2cccnc2c1)c1ccc(-c2cccc(F)c2)nc1`, the pKb in data set [1] is 8.6.
Consider `Cc1nc(-c2ccc(F)cc2)ccc1C(=O)Nc1ccc2cn[nH]c2c1`, for which the pKb in [1] amounted to 7.5.
For `O=C(Nc1ccc2cccnc2c1)c1ccc(-c2ccccc2F)nc1`, the pKb in [1] is 8.7.
With `O=C(Nc1ccc2cccnc2c1)c1ccc(Cl)nc1`, the negative logarithm of the Kb (pKb) in data set [1] was below 6.7.
One may read the ED50 as the dose that gives a 50% effect, or the effect in half of the subjects. For orientation: inhibition means how much of the control response was suppressed. The bioavailability is the share of a dose that reaches the circulation, judged against a reference dose that is usually intravenous. As to `Cc1nc2cc(NC(=O)c3ccc(-c4ccc(F)cc4)nc3C)ccc2s1`, the Activity was found to be 48% in data set [4] and 68% in data set [6]. For the same compound, the ED50 in [6] (Cavia porcellus, 1 h) was 0.53 mg/kg. In addition, the inhibition in [7] was determined as 87%; in data set [9], 100%; in data set [11], 96%. In [8], this compound showed a bioavailability of 24%. Besides, the results for the CL in data set [2] and in [3] were 2.2 mL/min/g and 2.7 mL/min/g, respectively. The pKb amounted to 7.4 in data set [1], 7.2 in data set [16], 7.4 in [17] and 7 in data set [18]. The half-maximal inhibitory concentration (IC50) in data set [10] was 49 nM; in data set [12], 9 nM; in [13], 39.8 nM; in [14], 63.1 nM; in [15], 100 nM.
As to `N#Cc1ccc(C(=O)Nc2ccc3cccnc3c2)cn1`, in data set [1], the pKb is below 6.7.
The same measure, in the same setting: the result for `Cc1nc(-c2ccc(F)cc2)ccc1C(=O)Nc1ccc2nc[nH]c2c1` reads 7.2.
For orientation: clearance means the rate of elimination divided by the concentration. The low end stands for inefficient removal, the high end for efficient removal. A word on the half-life: it is the time needed for the level to fall by half in the phase considered. Lower therefore signals fast loss. In the case of `O=C(Nc1ccc2cccnc2c1)c1ccc(-c2ccccc2)nc1`, the Activity in data set [19] was found to be 32%. The CL was found to be 3.1 mL/min/g in data set [2] and 3.9 mL/min/g in data set [3]. The clearance in data set [20] was found to be 33 mL/min/kg. This compound showed a half-life in [21] of 21.6 min.
In the case of `Cc1nc(-c2ccc(F)cc2)ccc1C(=O)Nc1ccc2ccn(C)c2c1`, in data set [1], the pKb is below 6.5.
For the compound `Cc1nc(-c2ccc(F)cc2)ccc1C(=O)Nc1ccc2scnc2c1`, the pKb in [1] is 7.5.
